Patent US7145058B2, “Efficient method of preventing growth of microbial genetic transformant after transformation” (Council of Scientific and Industrial Research, priority 2002, dated 2006)

What was measured:
[1] = system: Agrobacterium tumefaciens; test: Growth curve of Agrobacterium tumefaciens in liquid Yeast Mannitol Broth, optical density at 600 nm; type: cell-based; settings: different concentrations of D-catechin of Acacia species
Method: The growth of bacteria is measured spectrophotometrically. The variation of growth is measured for up to 48 hours at an interval of 6 hours each.
Two strains of Agrobacterium tumefaciens viz. EHA105 (mild) and GV2260 (virulent) harbouring the antibiotic resistance genes for kanamycin or hygromycin and the reporter gus gene were inoculated from mother cultures of respective strains into 10–30 ml liquid modified Yeast Mannitol Broth with kanamycin or hygromycin. The cultures were incubated for 12–16 hr at 25–30° C. and 150–200 rpm in dark and harvested at 0.6–0.8 optical density at 600 nm for 1×10^9 cells/ml during log phase of bacterial growth. […] Measurement of optical density at 600 nm at regular 6 hr intervals for 0–48 hr and the mean of three readings were plotted for development of the growth curve.
Crude mixture of catechins as well as caffeine at concentrations of 2–600 μg/ml were added to fresh cultures of Agrobacterium tumefaciens and maintained at 25–30° C. in dark at 150–200 rpm for 48 hr. The optical density was again measured at regular interval of 6 hr each for 0–48 hr for the plotting of the mean of the three readings in a linear graph in order to determine the effect of the crude mixture of catechins as well as caffeine at concentrations of 2–600 μg/ml on fresh cultures of Agrobacterium tumefaciens.

[2] = system: A. tumefaciens, supervirulent strain EHA101 (pEHA101/pGT100); settings: 100 μg/ml, singly or in combination, 52 days in regeneration and elongation media; cited from earlier work
[3] = system: cultured tissues of Vitis; settings: cited from earlier work
guar tissues = settings: cited from earlier work
[4] = system: Sitka spruce somatic embryos; settings: cited from earlier work
Agrobacterium = settings: carbenicillin, cefotaxime, ticarcillin for Brassica, Solanum, Rubus respectively; cited from earlier work

Structure (SMILES) | elimination of A. tumefaciens from the explants [2] | phytotoxicity to guar explants (guar tissues) | elimination of residual Agrobacterium (Agrobacterium) | other results
Oc1cc(O)c2c(c1)OC(c1ccc(O)c(O)c1)C(O)C2 [D-catechin] | – | – | – | growth of Agrobacterium tumefaciens [1]: promote and not inhibit the growth
CC1(C)S[C@@H]2[C@H](NC(=O)C(C(=O)O)c3ccccc3)C(=O)N2[C@H]1C(=O)O (some centres unmarked) [carbenicillin] | did not eliminate | phytotoxic | none of the antibiotics tested succeeded in eliminating Agrobacterium | effect on plant regeneration [3]: inhibitory effects on plant regeneration; development of mature somatic embryos [4]: prevented the development of mature somatic embryos; reduction of early stage embryos [4]: > 90%; reduction of tissue growth [4]: 50%
CO/N=C(\C(=O)N[C@@H]1C(=O)N2C(C(=O)O)=C(COC(C)=O)CS[C@H]12)c1csc(N)n1 [cefotaxime] | did not eliminate | phytotoxic | none of the antibiotics tested succeeded in eliminating Agrobacterium | effect on overall tissue growth [4]: no effect
CO[C@@]1(NC(=O)Cc2cccs2)C(=O)N2C(C(=O)O)=C(COC(N)=O)CS[C@@H]21 [cefoxitin] | did not eliminate | – | – | –
CC1(C)S[C@@H]2[C@H](NC(=O)[C@H](C(=O)O)c3ccsc3)C(=O)N2[C@H]1C(=O)O [ticaracillin, ticarcillin] | – | – | none of the antibiotics tested succeeded in eliminating Agrobacterium | –
